In patent US20200031820A1, “3-CARBOXYLIC ACID PYRROLES AS NRF2 REGULATORS” (GLSXOSMITHKLINE INTELLECTUAL PROPERTY DEVELOPMENT LIMITED, priority 2016, published 2020):

Target: T1, full length NRF2 protein and full length Keap1 protein (Homo sapiens, UniProt Q14145)
T1 construct: full length NRF2 protein and full length Keap1 protein; His
Experiment: NRF2-Keap1 TR-FRET Low Protein Assay
Type: binding
Settings: Keap1 FlagHis, biotin-NRF2
Text: NRF2-Keap1 TR-FRET Low Protein Assay In the NRF2-Keap1 TR-FRET (time-resolved fluorescence resonance energy transfer) low protein assay, full length NRF2 protein and full length Keap1 protein (Keap1 exists a dimer) are used. The assay detects a compound's ability to displace the binding of Keap1 FlagHis with biotinylated Avi-NRF2 protein. Biotin-NRF2 binds to streptavidin-europium (a component of the detection mix) and Keap1 FlagHis is recognized by anti-Flag APC (allophycocyanin) antibody (also a component of the detection mix). If binding occurs between the two proteins, there will be an energy transfer from the Eu+3 (donor) at 615 nm to the APC (acceptor) at 665 nm. A potential NRF2 inhibitor will cause a reduction in the TR-FRET signal by interfering with the binding of Keap1 to NRF2.
Ten nanoliters of 100× compound dose response curves (serial 3-fold dilutions) in DMSO were stamped using an Echo liquid handling system (Labcyte) into 384-well, low volume, black assay plates (Greiner, #784076), with DMSO in columns 6 and 18. An additional 90 nl DMSO was added to each well, to bring the total volume to 100 nl per well. The top concentration of compound was located in columns 1 and 13, with the serial dilutions going across the row. All reagents were diluted in assay buffer (50 mM Tris, pH 8.0, 5 mM MgCl2, 100 mM NaCl, 0.005% BSA, 1 mM DTT, and 2 mM CHAPS. The BSA, DTT, and CHAPS were added to the assay buffer on the day of assay. Using a Multidrop Combi (Thermo Electron Corporation) equipped with a metal tip dispenser, 5 ul of 1.25 nM Keap1 FlagHis protein was added to all wells of the compound plate, with the exception of the wells in column 18. Wells in column 18 received 5 ul of assay buffer instead. Plates were centrifuged at 500 rpm for 1 minute, covered with a plate lid, and incubated at 37° C. for 2.25 hours. Plates were then removed from the incubator and allowed to cool to RT for 15 minutes. Five microliters of 2.5 nM biotin-NRF2 protein was then added to all wells of the plates and the plates were spun at 500 rpm for 1 minute, followed by incubating at 4° C. for 1.25 hours. The plates were then allowed to warm to RT for 15 minutes, followed by the addition of 10 ul of detection mix (1 nM Streptavidin Eu+ W1024 and 5 ug/ml mouse anti-DYKDDDDK IgG conjugated to SureLight APC antibody; both from Columbia Biosciences) to all wells. Plates were spun at 500 rpm for 1 minute, incubated for 1 hour at RT, and read on an Envision plate reader using a 320 nm excitation filter and 615 nm and 665 nm emission filters. Compound response (% inhibition) and potency (pIC50) were calculated based on the ratio of the two emissions (665 nm/615 nm) and then the transformed data is normalized against controls in the assay (control 1=1% DMSO in the presence of NRF2 and Keap1 protein and control 2=1% DMSO in the presence of only the NRF2 protein). Data analysis was handled using the software package Abase XE (Surrey, United Kingdom). The % inhibition values were calculated from the ratio (transformed) data by the equation:
100−(100*(compound response−average control 2)/(average control 1−average control2)).
For calculation of pIC50s, Abase XE used a four-parameter equation.
IC50s<10 nM (+++++), IC50s 10-100 nM (++++), IC50s 100 nM-1 uM (+++), IC50s 1-10 uM (++). & IC50s 10 uM-100 uM (+), IC50s >100 uM (−), or were not determined (ND).

T1 sequence (Q14145 whole entry): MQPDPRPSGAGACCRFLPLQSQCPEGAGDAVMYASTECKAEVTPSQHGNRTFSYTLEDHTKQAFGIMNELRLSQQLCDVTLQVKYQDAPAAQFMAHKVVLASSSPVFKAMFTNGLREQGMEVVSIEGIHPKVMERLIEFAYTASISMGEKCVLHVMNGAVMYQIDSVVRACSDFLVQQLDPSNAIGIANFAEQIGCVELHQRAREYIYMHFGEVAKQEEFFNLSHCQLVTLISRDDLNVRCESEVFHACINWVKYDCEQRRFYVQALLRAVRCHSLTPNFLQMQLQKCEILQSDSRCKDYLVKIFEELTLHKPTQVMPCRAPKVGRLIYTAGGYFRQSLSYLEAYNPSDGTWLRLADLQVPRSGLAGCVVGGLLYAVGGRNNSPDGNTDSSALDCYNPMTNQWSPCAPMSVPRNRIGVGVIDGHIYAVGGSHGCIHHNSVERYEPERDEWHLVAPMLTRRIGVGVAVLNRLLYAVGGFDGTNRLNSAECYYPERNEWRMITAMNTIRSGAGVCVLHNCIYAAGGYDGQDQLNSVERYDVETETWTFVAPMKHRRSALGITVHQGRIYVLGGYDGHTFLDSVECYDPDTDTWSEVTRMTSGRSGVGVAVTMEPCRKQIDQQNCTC

Row | Compound | EC50 [µM]
1 | C[C@H]1Cc2ccc(C(F)(F)F)cc2S(=O)(=O)N(C2CCc3c2cccc3-n2ccc(C(=O)O)c2C2CC2)C1 (mixture of isomers) [Example 12, 2-Cyclopropyl-1-(1-((S)-4-methyl-1,1-dioxido-8-(trifluoromethyl)-4,5-dihydrobenzo[f][1,2]thiazepin-2(3H)-yl)-2,3-dihydro-1H-inden-4-yl)-1H-pyrrole-3-carboxylic acid] | 10 to 100
2 | C[C@H]1Cc2ccc(C(F)(F)F)cc2S(=O)(=O)N(Cc2cccc(-n3ccc(C(=O)O)c3[C@@H]3C[C@H]3c3cn(C)nn3)c2)C1 (racemic) [Example 1, 1-(3-(((S)-4-Methyl-1,1-dioxido-8-(trifluoromethyl)-4,5-dihydrobenzo[f]-[1,2]thiazepin-2(3H)-yl)methyl)phenyl)-2-(trans-2-(1-methyl-1H-1,2,3-triazol-4-yl)cyclopropyl)-1H-pyrrole-3-carboxylic acid] | 0.01 to 0.1
3 | C[C@H]1Cc2cc(C(F)(F)F)ccc2S(=O)(=O)N(Cc2cccc(-n3ccc(C(=O)O)c3[C@@H]3C[C@H]3c3cn(C)nn3)c2)C1 (racemic) [Example 2, 1-(3-(((S)-4-methyl-1,1-dioxido-7-(trifluoromethyl)-4,5-dihydrobenzo[f][1,2]thiazepin-2(3H)-yl)methyl)phenyl)-2-(trans-2-(1-methyl-1H-1,2,3-triazol-4-yl)cyclopropyl)-1H-pyrrole-3-carboxylic acid] | 0.01 to 0.1
4 | Cc1c(CN2C[C@@H](C)Cc3ccc(C(F)(F)F)cc3S2(=O)=O)cccc1-n1ccc(C(=O)O)c1[C@@H]1C[C@H]1c1cn(C)nn1 (racemic) [Example 10, rac-2-(trans-2-(1-methyl-1H-1,2,3-triazol-4-yl)cyclopropyl)-1-(2-methyl-3-(((S)-4-methyl-1,1-dioxido-8-(trifluoromethyl)-4,5-dihydrobenzo[f][1,2]thiazepin-2(3H)-yl)methyl)phenyl)-1H-pyrrole-3-carboxylic acid] | 0.1 to 1
5 | Cc1ccc(CN2C[C@@H](C)Cc3ccc(C(F)(F)F)cc3S2(=O)=O)cc1-n1ccc(C(=O)O)c1[C@@H]1C[C@H]1c1cn(C)nn1 (racemic) [Example 11, rac-2-(trans-2-(1-methyl-1H-1,2,3-triazol-4-yl)cyclopropyl)-1-(2-methyl-5-(((S)-4-methyl-1,1-dioxido-8-(trifluoromethyl)-4,5-dihydrobenzo[f][1,2]thiazepin-2(3H)-yl)methyl)phenyl)-1H-pyrrole-3-carboxylic acid] | 1 to 10
6 | C[C@H](Oc1cccc(-c2cccc(-n3ccc(C(=O)O)c3[C@@H]3C[C@H]3c3cn(C)nn3)c2)c1)C1CCCCC1 (racemic) [Example 13, 1-(3′-((S)-1-Cyclohexylethoxy)-[1,1′-biphenyl]-3-yl)-2-(trans-2-(1-methyl-1H-1,2,3-triazol-4-yl)cyclopropyl)-1H-pyrrole-3-carboxylic acid] | 0.1 to 1
7 | CCC[C@@H]1CCCCN1C(=O)c1cccc(-c2cccc(-n3ccc(C(=O)O)c3[C@@H]3C[C@H]3c3cn(C)nn3)c2)c1 (racemic) [Example 14, 2-(trans-2-(1-methyl-1H-1,2,3-triazol-4-yl)cyclopropyl)-1-(3′-((R)-2-propylpiperidine-1-carbonyl)-[1,1′-biphenyl]-3-yl)-1H-pyrrole-3-carboxylic acid] | 0.01 to 0.1
8 | CCC[C@@H]1CCCCN1C(=O)c1cccc(-c2cccc(-n3ccc(C(=O)O)c3[C@@H]3C[C@H]3c3cn(C)nn3)c2)c1F (racemic) [Example 15, 1-(2′-fluoro-3′-((R)-2-propylpiperidine-1-carbonyl)-[1,1′-biphenyl]-3-yl)-2-(trans-2-(1-methyl-1H-1,2,3-triazol-4-yl)cyclopropyl)-1H-pyrrole-3-carboxylic acid] | 0.01 to 0.1
9 | Cn1cc([C@@H]2C[C@H]2c2c(C(=O)O)ccn2-c2cccc(CN3Cc4cc(F)ccc4OC(C)(C)C3)c2)nn1 (racemic) [Example 19] | 0.1 to 1
10 | Cn1cc([C@@H]2C[C@H]2c2c(C(=O)O)ccn2-c2cccc(CN3Cc4cc(Br)ccc4OC(C)(C)C3)c2)nn1 (racemic) [Example 20] | 0.1 to 1
11 | Cn1cc([C@@H]2C[C@H]2c2c(C(=O)O)ccn2-c2cccc(CN3Cc4ccccc4CC(C)(C)C3)c2)nn1 (racemic) [Example 21] | 0.1 to 1
12 | CCCC[C@H]1Cc2ccccc2S(=O)(=O)N(Cc2cccc(-n3ccc(C(=O)O)c3[C@@H]3C[C@H]3c3cn(C)nn3)c2)C1 [Example 3, 1-(3-(((S)-4-butyl-1,1-dioxido-4,5-dihydrobenzo[f][1,2]thiazepin-2(3H)-yl)methyl)phenyl)-2-((1R,2R)-2-(1-methyl-1H-1,2,3-triazol-4-yl)cyclopropyl)-1H-pyrrole-3-carboxylic acid] | 0.01 to 0.1
13 | CCCC[C@H]1Cc2ccc(C(F)(F)F)cc2S(=O)(=O)N(Cc2cccc(-n3ccc(C(=O)O)c3[C@@H]3C[C@H]3c3cn(C)nn3)c2)C1 [Example 6, 1-(3-(((S)-4-butyl-1,1-dioxido-8-(trifluoromethyl)-4,5-dihydrobenzo[f][1,2]thiazepin-2(3H)-yl)methyl)phenyl)-2-((1R,2R)-2-(1-methyl-1H-1,2,3-triazol-4-yl)cyclopropyl)-1H-pyrrole-3-carboxylic acid] | 0.01 to 0.1
14 | CC[C@H]1Cc2cc(C(F)(F)F)ccc2S(=O)(=O)N(Cc2cccc(-n3ccc(C(=O)O)c3[C@@H]3C[C@H]3c3cn(C)nn3)c2)C1 [Example 7, 1-(3-(((S)-4-ethyl-1,1-dioxido-7-(trifluoromethyl)-4,5-dihydrobenzo[f][1,2]thiazepin-2(3H)-yl)methyl)phenyl)-2-((1R,2R)-2-(1-methyl-1H-1,2,3-triazol-4-yl)cyclopropyl)-1H-pyrrole-3-carboxylic acid] | 0.01 to 0.1
15 | C[C@H]1Cc2ccc(Br)cc2S(=O)(=O)N(Cc2cccc(-n3ccc(C(=O)O)c3[C@@H]3C[C@H]3c3cn(C)nn3)c2)C1 [Example 8, 1-(3-(((S)-8-bromo-4-methyl-1,1-dioxido-4,5-dihydrobenzo[f][1,2]thiazepin-2(3H)-yl)methyl)phenyl)-2-((1R,2R)-2-(1-methyl-1H-1,2,3-triazol-4-yl)cyclopropyl)-1H-pyrrole-3-carboxylic acid] | 0.01 to 0.1
16 | CC[C@H]1Cc2ccc(Br)cc2S(=O)(=O)N(Cc2cccc(-n3ccc(C(=O)O)c3[C@@H]3C[C@H]3c3cn(C)nn3)c2)C1 [Example 9, 1-(3-(((S)-8-bromo-4-ethyl-1,1-dioxido-4,5-dihydrobenzo[f][1,2]thiazepin-2(3H)-yl)methyl)phenyl)-2-((1R,2R)-2-(1-methyl-1H-1,2,3-triazol-4-yl)cyclopropyl)-1H-pyrrole-3-carboxylic acid] | < 0.01
17 | C[C@H](Oc1cccc(-c2cccc(-n3ccc(C(=O)O)c3[C@H]3C[C@@H]3c3cn(C)nn3)c2)c1)C1CCCCC1 [Example 17, 1-(3′-((S)-1-cyclohexylethoxy)-[1,1′-biphenyl]-3-yl)-2-((1S,2S)-2-(1-methyl-1H-1,2,3-triazol-4-yl)cyclopropyl)-1H-pyrrole-3-carboxylic acid] | 0.1 to 1
18 | CCC[C@@H]1CCCCN1C(=O)c1cccc(-c2cccc(-n3ccc(C(=O)O)c3[C@@H]3C[C@H]3c3cn(C)nn3)c2)c1Br [Example 22] | 0.01 to 0.1
19 | CCC[C@@H]1CCCCN1C(=O)c1cc(F)cc(-c2cccc(-n3ccc(C(=O)O)c3[C@@H]3C[C@H]3c3cn(C)nn3)c2)c1 [Example 23] | 0.01 to 0.1
20 | CCC[C@@H]1CCCCN1C(=O)c1cccc(-c2cccc(-n3ccc(C(=O)O)c3[C@@H]3C[C@H]3c3cn(C)nn3)c2)c1C(F)(F)F [Example 24] | 1 to 10
